In patent US20240299367A1, “METHODS OF TREATING ACUTE RESPIRATORY DISTRESS SYNDROME WITH ACTIVATORS OF TIE-2” (AERPIO PHARMACEUTICALS, INC., priority 2020, published 2024):
Where two headings read alike, the source gives them in different places.

What was measured:
HPTPβ = HPTPβ (Homo sapiens (Human), UniProt P23467); assay: HPTPβ inhibitory activity (IC50); type: biochemical
[1] = test system: polymicrobial septic shock; assay: Cecal ligation and puncture (CLP) model of sepsis, survival; type: in vivo, Sprague Dawley rats; settings: rats, SC BID days 1-5, monitored 10 days, Cpd 1 10 mg/kg, IM 20 mg/kg
[2] = test system: SARS-COV, MERS-COV, and SARS-CoV-2; settings: cell culture and animal models; cited from earlier work
[3] = 0.9% saline, cited from earlier work
[4] = Urine albumin/creatinine ratio (UACR) in Phase 2 and Phase 2b studies; type: in vivo, human; settings: Phase 2, patients with evidence of diabetic nephropathy

HPTPβ, sequence (P23467 23-1997): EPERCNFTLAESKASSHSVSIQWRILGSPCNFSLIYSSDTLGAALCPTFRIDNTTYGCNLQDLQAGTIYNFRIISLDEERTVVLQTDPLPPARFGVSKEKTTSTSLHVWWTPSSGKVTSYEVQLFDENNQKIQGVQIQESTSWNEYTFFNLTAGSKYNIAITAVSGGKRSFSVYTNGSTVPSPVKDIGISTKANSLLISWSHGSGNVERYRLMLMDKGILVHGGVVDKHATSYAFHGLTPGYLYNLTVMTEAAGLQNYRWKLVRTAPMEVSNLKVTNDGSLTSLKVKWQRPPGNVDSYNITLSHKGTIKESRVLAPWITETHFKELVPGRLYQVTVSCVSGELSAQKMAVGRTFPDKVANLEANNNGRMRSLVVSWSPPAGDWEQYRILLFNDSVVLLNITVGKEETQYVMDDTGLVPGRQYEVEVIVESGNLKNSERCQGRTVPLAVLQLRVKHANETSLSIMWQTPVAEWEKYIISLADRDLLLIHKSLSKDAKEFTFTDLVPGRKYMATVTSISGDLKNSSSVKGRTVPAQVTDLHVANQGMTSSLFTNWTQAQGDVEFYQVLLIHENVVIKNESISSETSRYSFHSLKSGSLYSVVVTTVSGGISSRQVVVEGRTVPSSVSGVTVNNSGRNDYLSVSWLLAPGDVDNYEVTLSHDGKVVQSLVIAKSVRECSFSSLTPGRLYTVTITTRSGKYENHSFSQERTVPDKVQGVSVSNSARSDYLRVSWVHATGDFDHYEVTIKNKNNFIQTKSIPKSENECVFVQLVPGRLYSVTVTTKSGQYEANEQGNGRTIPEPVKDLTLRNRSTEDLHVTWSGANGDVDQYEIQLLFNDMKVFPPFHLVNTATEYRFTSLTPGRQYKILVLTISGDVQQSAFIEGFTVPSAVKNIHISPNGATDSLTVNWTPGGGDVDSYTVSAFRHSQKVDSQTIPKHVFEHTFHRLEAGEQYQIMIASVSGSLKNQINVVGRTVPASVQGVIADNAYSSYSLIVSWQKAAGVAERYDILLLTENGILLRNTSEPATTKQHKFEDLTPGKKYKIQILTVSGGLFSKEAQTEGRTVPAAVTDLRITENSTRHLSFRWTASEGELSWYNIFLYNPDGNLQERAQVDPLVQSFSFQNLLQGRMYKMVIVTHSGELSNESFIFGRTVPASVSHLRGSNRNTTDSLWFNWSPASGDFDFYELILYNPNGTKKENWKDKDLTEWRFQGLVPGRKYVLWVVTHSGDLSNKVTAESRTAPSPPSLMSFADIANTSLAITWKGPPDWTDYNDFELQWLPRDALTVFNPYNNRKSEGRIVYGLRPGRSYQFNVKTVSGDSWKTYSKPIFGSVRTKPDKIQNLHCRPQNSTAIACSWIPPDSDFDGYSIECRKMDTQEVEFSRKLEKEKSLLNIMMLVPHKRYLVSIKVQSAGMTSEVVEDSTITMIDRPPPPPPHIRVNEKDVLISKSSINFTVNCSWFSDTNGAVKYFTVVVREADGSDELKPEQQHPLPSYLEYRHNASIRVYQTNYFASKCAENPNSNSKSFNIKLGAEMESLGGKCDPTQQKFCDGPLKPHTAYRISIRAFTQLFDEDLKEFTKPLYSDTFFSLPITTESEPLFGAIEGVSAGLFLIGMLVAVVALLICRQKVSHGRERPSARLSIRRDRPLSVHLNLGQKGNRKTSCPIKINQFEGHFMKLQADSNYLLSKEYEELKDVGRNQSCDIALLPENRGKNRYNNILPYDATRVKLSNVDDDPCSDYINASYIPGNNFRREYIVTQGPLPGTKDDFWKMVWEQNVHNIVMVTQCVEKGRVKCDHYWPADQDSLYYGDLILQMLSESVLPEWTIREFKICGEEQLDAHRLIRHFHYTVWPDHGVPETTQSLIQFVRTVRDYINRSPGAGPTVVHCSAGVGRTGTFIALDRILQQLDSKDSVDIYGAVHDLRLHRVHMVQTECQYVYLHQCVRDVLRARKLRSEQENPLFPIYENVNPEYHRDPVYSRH

Q: With Cc1nc([C@H](Cc2ccc(NS(=O)(=O)O)cc2)NC(=O)OC(C)(C)C)cs1 [AA64] as the molecule, how does the IC50 (HPTPβ) read?
A: 33 nM

Q: With COC(=O)Cc1csc([C@H](Cc2ccc(NS(=O)(=O)O)cc2)NC(=O)OC(C)(C)C)n1 [AA70, (S)-4-(2-(tert-Butoxycarbonyl)-2-(4-(2-(2-methoxy-2-oxoyethylamino)-2-oxoethyl)thiazole-2-yl)ethyl)phenylsulfamic acid] as the molecule, how does the IC50 (HPTPβ) read?
A: 132 nM

Q: For C[C@@H](O)[C@H]1C(=O)N2C(C(=O)O)=C(SCCN=CN)C[C@H]12 [IM, imipenem], which survival [1] is on record?
A: 81%

Q: For CCC(CC)COC(=O)[C@H](C)N[P@](=O)(OC[C@H]1O[C@@](C#N)(c2ccc3c(N)ncnn23)[C@H](O)[C@@H]1O)Oc1ccccc1 [Remdesivir], which antiviral activity [2] is on record?
A: exhibits activity in cell culture and animal models

Q: And the “storage time of diluted solution” value ([3]; refrigerated (2° C. to 8° C.))?
A: 24 h

Q: And the “storage time of diluted solution” value ([3]; room temperature (20° C. to 25° C.))?
A: up to 4 hours

B1: ranibizumab (antibody, chains of the INN, looked up, V domains shown)
VH: EVQLVESGGGLVQPGGSLRLSCAASGYDFTHYGMNWVRQAPGKGLEWVGWINTYTGEPTYAADFKRRFTFSLDTSKSTAYLQMNSLRAEDTAVYYCAKYPYYYGTSHWYFDVWGQGTLVTVSS
VL: DIQLTQSPSSLSASVGDRVTITCSASQDISNYLNWYQQKPGKAPKVLIYFTSSLHSGVPSRFSGSGSGTDFTLTISSLQPEDFATYYCQQYSTVPWTFGQGTKVEIK
modifications: Fab
notes: anti-VEGF agent, standard-of-care intravitreal injection
Q: For B1, which UACR change [4] is on record?
A: increase
